“Also recorded” adds a separate entry of the source. Values belong to the compound of their own block, whether it stands above or below them.
Columns and labels:
[1] = clinical trials; cited from earlier work
[2] = Stability of Compound (II) suspended in various solvents (slurry experiment, HPLC area %); format: physicochemical
Source text: Therefore, the first course of action was to find a suitable solvent in which to suspend compound (II) for the addition to the first mixture of step 6a).

Structure (SMILES): O=C(NOC[C@H](O)CO)c1ccc(F)c(F)c1Nc1ccc(I)cc1F [PD0325901]
- Side effects exhibited [1]: neurological side effects associated with ataxia, confusion, and syncope; also recorded: one or more neurological side effects associated with ataxia, confusion, and syncope

- Area % t = 10 min ([2]; solvent 2-Me-THF): 88.0 Area %
- Area % t = 2 h ([2]; solvent 2-Me-THF): 77.8 Area %
- Area % t = 17 h ([2]; solvent 2-Me-THF): 75.3 Area %
- Area % t = 10 min ([2]; solvent DCM): 91.4 Area %
- Area % t = 2 h ([2]; solvent DCM): 90.5 Area %
- Area % t = 17 h ([2]; solvent DCM): 85.3 Area %
- Area % t = 10 min ([2]; solvent Heptane): *68.6 Area %
- Area % t = 2 h ([2]; solvent Heptane): 88.4 Area %
- Area % t = 17 h ([2]; solvent Heptane): 91.8 Area %
- Area % t = 10 min ([2]; solvent IPAc): *81.6 Area %
- Area % t = 2 h ([2]; solvent IPAc): 93.3 Area %
- Area % t = 17 h ([2]; solvent IPAc): 90.4 Area %
- Area % t = 10 min ([2]; solvent MTBE): 92.9 Area %
- Area % t = 2 h ([2]; solvent MTBE): *81.6 Area %
- Area % t = 17 h ([2]; solvent MTBE): 87.2 Area %
- Area % t = 10 min ([2]; solvent MeCN): 87.4 Area %
- Area % t = 2 h ([2]; solvent MeCN): 79.2 Area %
- Area % t = 17 h ([2]; solvent MeCN): 65.5 Area %
- Area % t = 10 min ([2]; solvent THF): 90.0 Area %
- Area % t = 2 h ([2]; solvent THF): 83.7 Area %
- Area % t = 17 h ([2]; solvent THF): 63.7 Area %
Structure (SMILES): Cn1c(Nc2ccc(I)cc2F)c(C(=O)Cl)c2cccnc21 [Compound (II)]
- Decomposition when suspended in THF ([2]; suspended in THF for a period of time (e.g., >10 h)): Decomposition of compound (II) was found to occur

From patent US20240228480A1, “PROCESSES FOR PREPARING PYRROLOPYRIDINE-ANILINE COMPOUNDS” (NFLECTION THERAPEUTICS, INC., priority 2021, published 2024)
